Source: patent publication US20250179023A1, “HOLOSYMMETRIC BIPHENYL DERIVATIVE, AND PREPARATION METHOD THEREFOR AND USE THEREOF” (Abbisko Therapeutics Co., Ltd., priority 2022, published 2025)
pEC50, pIC50: −log10 of the molar value.

What was measured:
Caco-2 cells [1] = tested on: Caco-2 cells
Procedure: (§6) The permeability and the efflux ratio of the compounds of the examples of the present invention and the comparative compounds were evaluated using a Caco-2 cell model in this experiment. The specific process was as follows: • 1) The Caco-2 cell culture medium was modified Eagle's medium (MEM) containing 10% inactivated fetal bovine serum and 1% nonessential amino acids.
(§7) Working solutions were obtained by diluting with Hank's balanced salt solution (HBSS, Invitrogen) containing 25 mM HEPES (pH 7.4). The detection concentration of the test compound was 10 μM. This study was a two-way permeation experiment from the apical side to the basolateral side (A−B) and from the basolateral side to the apical side (B−A), and a 90-minute incubation at 37° C. was required. After the incubation, the samples diluted with buffer were detected by LC-MS/MS. The concentrations of the compounds were quantified using a standard curve. • 4) Apparent permeability coefficient Papp value (cm/s):

in vitro = conditions: human, Caco-2, pH 7.4
Procedure: as §6, §7

[2] = biological target: PD-1/PD-L1 interaction (Jurkat/NF-κB-luc/PD1 cells cocultured with Raji-PD-L1 cells) (Homo sapiens (Human), UniProt Q9NZQ7); test: Jurkat reporter gene cellular assay; type: cell-based; conditions: NF-κB-luc reporter activation fold, OKT3 1 μg/mL, 6 hrs; read-out: Cell activity EC50
Sequence of PD-1/PD-L1 interaction (Jurkat/NF-κB-luc/PD1 cells cocultured with Raji-PD-L1 cells) (Q9NZQ7 19-290): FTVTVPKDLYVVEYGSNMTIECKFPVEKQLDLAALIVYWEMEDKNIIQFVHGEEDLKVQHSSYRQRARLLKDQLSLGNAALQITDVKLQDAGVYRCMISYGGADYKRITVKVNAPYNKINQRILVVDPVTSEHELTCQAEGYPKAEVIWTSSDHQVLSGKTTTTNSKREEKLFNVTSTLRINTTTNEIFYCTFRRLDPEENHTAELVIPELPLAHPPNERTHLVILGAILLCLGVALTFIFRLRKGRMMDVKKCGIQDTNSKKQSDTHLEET
Procedure: The effect of compounds of the examples of the present invention on the PD-1/PD-L1 interaction expressed on cell surfaces and the related influence on T cell functions were determined by a Jurkat reporter gene cellular assay. Briefly, the reporter gene plasmid of NF-κB-luc and the plasmid of human PD-1 were transfected into Jurkat cells to establish a stably transfected cell line capable of stably expressing both PD-1 and NF-κB-Luc reporter genes; the expression level of PD-1 on the cell surface was confirmed by flow cytometry; and the expression of the reporter gene was confirmed via the response of the reporter gene stimulated by OKT-3 and Raji cells.
In addition, the plasmid of human PD-L1 was transfected into Raji cells to obtain a cell line capable of stably expressing PD-L1. Jurkat/NF-κB-luc/PD1 cells and Raji-PD-L1 cells were then cocultured and stimulated with OKT-3. On this basis, the compounds were added, and the enhancement of the signal pathway of T cell activation by the inhibitory effect of the compounds on the PD-1/PD-L1 interaction was evaluated by readings of reporter gene responses.

[3] = Caco-2 membrane permeability test; conditions: human, Caco-2, pH 7.4
Procedure: as §6, §7

[4] = Pharmacokinetics in rats (exposure and oral availability); type: in vivo; conditions: male, ICR, rat; for bioavailability: PO (5 mpk) vs IV (1 mpk), read-out: Oral availability (F %)
Source text: (§1) The purpose of this study is to study the pharmacokinetic behaviors of some compounds of the present invention, and administration routes were: single per oral administration (PO) or intravenous injection (IV) to ICR mice or rats.
(§2) The compounds used in this test were compounds of specific examples of the present invention and the comparative compounds listed.
ICR rats male N=3 original source: Shanghai Sippr-BK Laboratory Animal Co. Ltd.
(§3) The compounds were each dissolved in a corresponding vehicle, mixed well by shaking and subjected to ultrasonic treatment to obtain colorless clear solutions. 9 mice and 3 rats were orally administered with the solution after fasting overnight. The mice were dosed at 10 mg/kg (or 2 mg/kg by IV) and the rats were dosed at 5 mg/kg (or 1 mg/kg by IV).
(§4) With about 90 μL/time point, blood was drawn from the submaxillary vein, and heparin sodium was added for anticoagulation. The blood samples were placed onto the ice and centrifuged (centrifugation conditions: 8000 rpm, 6 min, 2-8° C.) within 1 hr to isolate the plasmas. The time points for blood sampling were at 0 hrs, 0.25 hrs, 0.5 hrs, 1 hr, 2 hrs, 4 hrs, 6 hrs, 8 hrs and 24 hrs after administration. The samples were stored in a refrigerator at −20° C.
(§5) 40 μL of plasma sample was added to 160 μL of cold acetonitrile containing an internal standard, and the mixture was vortexed for 3 min and centrifuged at 11,000 rpm for 5 min. 100 μL of the supernate was added to 100 μL of water, and 5 μL of the mixed solution was loaded for LC-MS/MS analysis. For comparative compounds 1, 3, 5, the prodrug compounds and corresponding prototype compounds 2, 4, 6 were all analyzed, and specific analysis results are shown in Table 4.

[5] = Pharmacokinetics in mice (exposure and oral availability); type: in vivo; conditions: male, mouse, ICR mice; for bioavailability: PO (10 mpk) vs IV (2 mpk), read-out: Oral availability (F %)
Source text: as §1, §2
ICR mice male N=9 original source: Shanghai Sippr-BK Laboratory Animal Co. Ltd.
as §3, §4, §5

PD-1/PD-L1 interaction = PD-1/PD-L1 interaction (Homo sapiens (Human), UniProt Q9NZQ7); test: PD1-PDL1 HTRF binding activity test; conditions: Cisbio PD-1/PD-L1 binding assay kit
Sequence of PD-1/PD-L1 interaction (Q9NZQ7 19-238): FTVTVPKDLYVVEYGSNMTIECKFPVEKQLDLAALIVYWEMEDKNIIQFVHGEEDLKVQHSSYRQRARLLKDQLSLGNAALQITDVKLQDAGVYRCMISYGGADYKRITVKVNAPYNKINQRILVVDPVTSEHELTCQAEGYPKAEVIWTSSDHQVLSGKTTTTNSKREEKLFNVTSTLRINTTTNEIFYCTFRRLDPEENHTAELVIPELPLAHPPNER
Procedure: The effect of compounds of the examples of the present invention on the PD-1/PD-L1 interaction was determined by the PD-1/PD-L1 binding assay kit from Cisbio (#64ICP01PEG or 64ICP01PEH).

Caco-2 cells [6] = test: Caco-2 membrane permeability test; conditions: Caco-2, summary of Table 2
Procedure: as §6, §7

[7] = 5 mg/kg, PO (5 mpk), dosed compound detected in plasma
[8] = 10 mg/kg, PO (10 mpk), dosed compound detected in plasma

Row | pEC50 [2] | Papp A→B at 90 min, 10 μM [3] | Papp B→A at 90 min, 10 μM [3] | efflux ratio at 90 min, 10 μM [3] | Cmax [5, 8] | bioavailability ([5]; plasma, 10 mg/kg) | pIC50 (PD-1/PD-L1 interaction) | SMILES | other results
1 |  | 0.34 ×10⁻⁶ cm/s | 5.51 ×10⁻⁶ cm/s | 16.3 | 46.2 ng/mL |  |  | Cc1c(NC(=O)c2cc(C3CC3)c(CN3CC[C@H](C(=O)O)C3)cn2)cccc1-c1cccc(NC(=O)c2cc(C3CC3)c(CN3CC[C@H](C(=O)O)C3)cn2)c1C [compound 6] | A−B membrane permeability (in words) (Caco-2 cells [6]): poor membrane permeability; AUC(0-t) [5, 8]: 147 ng·h/mL
2 |  | < 1.79 ×10⁻⁶ cm/s | < 0.65 ×10⁻⁶ cm/s |  | 30.4 ng/mL |  |  | COC(=O)[C@H]1CCN(Cc2cnc(C(=O)Nc3cccc(-c4cccc(NC(=O)c5cc(C6CC6)c(CN6CC[C@H](C(=O)OC)C6)cn5)c4C)c3C)cc2C2CC2)C1 [compound 5] | 
3 |  |  |  |  |  | 0% |  | CCOC(=O)CNCc1cnc(C(=O)Nc2cccc(-c3cccc(NC(=O)c4cc(C5CC5)c(CNCC(=O)OCC)cn4)c3C)c2C)cc1C1CC1 [compound 3, reference compound] | 
4 |  | < 0.24 ×10⁻⁶ cm/s | 0.98 ×10⁻⁶ cm/s |  |  |  |  | Cc1c(NC(=O)c2cc(C3CC3)c(CNCC(=O)O)cn2)cccc1-c1cccc(NC(=O)c2cc(C3CC3)c(CNCC(=O)O)cn2)c1C [compound 4] | A−B membrane permeability (in words) (Caco-2 cells [6]): poor membrane permeability

Second part, the compound before the results:

Row | SMILES | pEC50 [2] | Papp A→B at 90 min, 10 μM [3] | Papp B→A at 90 min, 10 μM [3] | efflux ratio at 90 min, 10 μM [3] | Cmax [5, 8] | bioavailability ([5]; plasma, 10 mg/kg) | pIC50 (PD-1/PD-L1 interaction) | other results
5 | COCCc1ccc(OCC(O)CNC(C)C)cc1 (centres unmarked) [Metoprolol, metoprolol] |  |  |  |  |  |  |  | Evaluation of permeability (Caco-2 cells [1]): High; Papp A→B at 90 min, 10 μM (in vitro): 24.7 ×10⁻⁶ cm/s; Papp B→A at 90 min, 10 μM (in vitro): 31.1 ×10⁻⁶ cm/s; efflux ratio at 90 min (in vitro): 1.26
6 | Cc1c(NC(=O)c2cc(C3CC3)c(CNC34CCC(C(=O)O)(CC3)CC4)cn2)cccc1-c1cccc(NC(=O)c2cc(C3CC3)c(CNC34CCC(C(=O)O)(CC3)CC4)cn2)c1C [Example 1, 4-(((6-((3′-(5-(((4-carboxybicyclo[2.2.2]octan-1-yl)amino)methyl) -4-cyclopropylpicolinamido)-2,2′-dimethyl-[1,1′-biphenyl]-3-yl)carbamoyl)-4-cyclopropylpyridin-3-yl)methyl)amino)bicyclo[2.2.2]octane-1-carboxylic acid] | 6.87 | 2.46 ×10⁻⁶ cm/s | 16.5 ×10⁻⁶ cm/s | 6.75 | 1910 ng/mL | 19.5% | 8.59 | AUC(0-t) [4, 7]: 2220 ng·h/mL; Cmax [4, 7]: 426 ng/mL; AUC(0-t) ([4]; plasma, 1 mg/kg, IV (1 mpk)): 2350 ng·h/mL; Cmax ([4]; plasma, 1 mg/kg, IV (1 mpk)): 3540 ng/mL; bioavailability ([4]; plasma, 5 mg/kg): 18.9%; AUC(0-t) [5, 8]: 8790 ng·h/mL; AUC(0-t) ([5]; plasma, 2 mg/kg, IV (2 mpk)): 9000 ng·h/mL; Cmax ([5]; plasma, 2 mg/kg, IV (2 mpk)): 4000 ng/mL
7 | Cc1c(NC(=O)c2cc(C3CC3)c(CNC34CCC(C(=O)O)(CC3)C4)cn2)cccc1-c1cccc(NC(=O)c2cc(C3CC3)c(CNC34CCC(C(=O)O)(CC3)C4)cn2)c1C [Example 2, 4,4′-((((((2,2′-dimethyl-[1,1′-biphenyl]-3,3′-diyl)bis(azanediyl))bis(carbonyl))bis (4-cyclopropylpyridine-6,3-diyl))bis(methylene))bis(azanediyl))bis(bicyclo[2.2.1]heptane-1-carboxylic acid)] | 6.82 |  |  |  |  |  | 8.44 | 
8 | COC(=O)[C@@H](CO)NCc1cnc(C(=O)Nc2cccc(-c3cccc(NC(=O)c4cc(C5CC5)c(CN[C@H](CO)C(=O)OC)cn4)c3C)c2C)cc1C1CC1 [compound 1, reference compound] |  | < 2.28 ×10⁻⁶ cm/s | < 1.85 ×10⁻⁶ cm/s |  |  | 0% |  | bioavailability ([4]; plasma, 5 mg/kg): 0%
9 | Cc1c(NC(=O)c2cc(C3CC3)c(CNCC34CCC(C(=O)O)(CC3)C4)cn2)cccc1-c1cccc(NC(=O)c2cc(C3CC3)c(CNCC34CCC(C(=O)O)(CC3)C4)cn2)c1C [Example 4, 4,4′-(((((((2,2′-dimethyl-[1,1′-biphenyl]-3,3′-diyl)bis(azanediyl))bis(carbonyl))bis(4-cyclopropylpyridine-6,3-diyl))bis(methylene))bis(azanediyl))bis(methylene))bis(bicyclo[2.2.1]heptane-1-carboxylic acid)] | 6.61 | 9.79 ×10⁻⁶ cm/s | 21.7 ×10⁻⁶ cm/s | 2.21 | 4550 ng/mL | 57.5% | 8.84 | AUC(0-t) [4, 7]: 4840 ng·h/mL; Cmax [4, 7]: 1980 ng/mL; AUC(0-t) ([4]; plasma, 1 mg/kg, IV (1 mpk)): 2200 ng·h/mL; Cmax ([4]; plasma, 1 mg/kg, IV (1 mpk)): 1860 ng/mL; bioavailability ([4]; plasma, 5 mg/kg): 44%; AUC(0-t) [5, 8]: 17600 ng·h/mL; AUC(0-t) ([5]; plasma, 2 mg/kg, IV (2 mpk)): 6110 ng·h/mL; Cmax ([5]; plasma, 2 mg/kg, IV (2 mpk)): 3520 ng/mL
10 | CC[C@H]1OC(=O)[C@H](C)[C@@H](O[C@H]2C[C@@](C)(OC)[C@@H](O)[C@H](C)O2)[C@H](C)[C@@H](O[C@@H]2O[C@H](C)C[C@H](N(C)C)[C@H]2O)[C@](C)(O)C[C@@H](C)C(=O)[C@H](C)[C@@H](O)[C@]1(C)O [Erythromycin, erythromycin] |  |  |  |  |  |  |  | Evaluation of permeability (Caco-2 cells [1]): High efflux; Papp A→B at 90 min, 10 μM (in vitro): 0.2 ×10⁻⁶ cm/s; Papp B→A at 90 min, 10 μM (in vitro): 21.6 ×10⁻⁶ cm/s; efflux ratio at 90 min (in vitro): 107
11 | Cc1c(NC(=O)c2cc(C3CC3)c(CN[C@H](CO)C(=O)O)cn2)cccc1-c1cccc(NC(=O)c2cc(C3CC3)c(CN[C@H](CO)C(=O)O)cn2)c1C [compound 2, reference compound] |  | 0.67 ×10⁻⁶ cm/s | 0.36 ×10⁻⁶ cm/s | 0.53 |  | 0% |  | A−B membrane permeability (in words) (Caco-2 cells [6]): poor membrane permeability; AUC(0-t) ([4]; plasma, 1 mg/kg, IV (1 mpk)): 7640 ng·h/mL; Cmax ([4]; plasma, 1 mg/kg, IV (1 mpk)): 13200 ng/mL; AUC(0-t) ([5]; plasma, 2 mg/kg, IV (2 mpk)): 2360 ng·h/mL; Cmax ([5]; plasma, 2 mg/kg, IV (2 mpk)): 5640 ng/mL
12 | Cc1c(NC(=O)c2cc(C3CC3)c(CN(C)C34CCC(C(=O)O)(CC3)C4)cn2)cccc1-c1cccc(NC(=O)c2cc(C3CC3)c(CN(C)C34CCC(C(=O)O)(CC3)C4)cn2)c1C [Example 3, 4,4′-((((((2,2′-dimethyl-[1,1′-biphenyl]-3,3′-diyl)bis(azanediyl))bis(carbonyl))bis(4-cyclopropylpyridine-6,3-diyl))bis(methylene))bis(methylazanediyl))bis(bicyclo[2.2.1]heptane-1-carboxylic acid)] | 5.86 |  |  |  |  |  | 8.34 | 
